Values quoted from earlier work, collected in US9125916B2, “Methods of treating hypertrophic cardiomyopathy” (Gilead Sciences, Inc., priority 2013, dated 2015).

Tested on: human cardiac tissue derived from patients with symptomatic HCM
Details: Circulation 2013, 127 (5):575-584

Structure (SMILES): COc1ccccc1OCC(O)CN1CCN(CC(=O)Nc2c(C)cccc2C)CC1 (stereo not shown) [ranolazine]
- effect of inhibition of late INa on electrical and mechanical abnormalities characteristic of HCM: reverse multiple electrical and mechanical abnormalities characteristic of the disease
